{
  "source": "patent US8097585B2",
  "about": "“Methods of treating inflammation by administration of heme oxygenase-1 and products of heme degradation” (priority 2002, dated 2012)",
  "key": {"[1]": {"system": "DBA/2 cardiac allografts in B6AF1 recipients", "assay": "Heterotopic cardiac allograft transplantation, graft survival", "format": "in vivo, mice", "protocol": "Animals. Male DBA/2 (H-2^d), B6AF1 (H-2^k/d,b) and FVB (H-2^q) mice were purchased from Jackson Lab. Inc. (Bar Harbor, Me.). They were maintained in the institutional specific-pathogen free facility, which has an appropriate light cycle with free access to water and chow ad libitum, and used for experiments at age of 6-10 weeks.\nCardiac transplantation. DBA2/J and B6AF1 mice were used as donor and recipient, respectively. Heterotopic heart transplantation was carried out according to the procedure of Corry and Russell (Corry et al., Transplant Proc. 5(1):733-5, 1973). […] Secondary heart grafting into the neck was performed using a cuff technique as described previously (Matsuura et al., Transplantation 51(4):896-8, 1991). Briefly, the heart graft was harvested from either DBA2/J (donor strain) or FVB (third-party strain) mice. The right jugular vein and the right common carotid artery of recipient were dissected, and a cuff (polyethylene or polyimide) was connected to these vessels. The graft aorta and pulmonary artery were sleeved over the cuff on the recipient's common carotid artery and the jugular vein, respectively, and fixed with a ligature. After transplantation, beating of the graft was monitored by daily palpation, and scored +1 to +4 according to the strength of graft contractions. Graft rejection was defined as cessation of beating, and was confirmed by direct inspection followed by histological examination.\nDonor and recipient mice were treated either with CoPPIX (5 mg/kg/day), ZnPPIX (5 mg/kg/day) or biliverdin (administered once, twice or three times per day at a dose of 50 μmol/kg/dose). All reagents were administered by intraperitoneal (i.p.) injection. Donor animals were treated for 2 days, starting from 2 days before graft harvest (day-2 and day-1). Treatment of recipient mice was initiated one day before transplantation, and continued until 13 days post-transplant (day-1 to day 13). For the experiments using donor splenocyte infusion (DSI) on day-7 (DSI (D-7)), treatments of recipient animals (either with CoPPIX or ZnPPIX) started from day-8 and were terminated on day 6. Recipients received no further treatment. Spleen cells (2×10^7) isolated from DBA/2J mice as described herein were used for DSI treatment. The cells were injected via the penile vein with 200 μl of 0.9% saline solution.\nStatistics. Cardiac graft survival was plotted by the Kaplan-Meier method, and a log-rank test was applied to compare statistical significance. Expression levels of HO-1/α-actin protein are expressed as mean±standard deviation. Other data are expressed as mean±standard error of the mean (mean±SEM). Intergroup statistical analysis was performed by one-way ANOVA, and Fisher's PSLD was used for a post-hoc test. A comparison was considered statistically significant when the p-value was <0.05."}, "recipient splenocytes": {"system": "recipient splenocytes", "assay": "Mixed lymphocyte culture with splenocytes of treated cardiac allograft recipients", "format": "in vivo, mice", "protocol": "Mixed lymphocyte culture (MLC). Irradiated (25Gy, ^137Cs) DBA/2 splenocytes (5×10^5/well) were co-cultured with responders (5×10^5/well) in a 96 well round bottom plates for 3 days at 37° C., 95% air with 5% CO2. When using cells from cardiac recipients as responders, the co-culture period was 3 days without any further in vitro treatment. ^3H-thymidine (1 μCi/well) was added 16 hours before termination of cell culture, and ^3H-thymidine incorporation was measured.\nInduction of HO-1 expression or biliverdin administration suppresses the T cell mediated alloimmune response in vivo. […] Recipient splenocytes harvested 5 days after cardiac transplantation were used as responder cells in an in vitro culture with DBA/2 splenocytes as feeder cells. Proliferation was measured at 72 hours (FIG. 9)."}, "[2]": {"conditions": "long-term acceptors after biliverdin, second set transplantation, n=3"}},
  "note": "Structures can show the parent of a compound that is named as a salt.",
  "data": [
    {"smiles": "C=CC1=C(C)/C(=C/C2=NC(=C\\c3[nH]c(/C=C4\\NC(=O)C(C)=C4C=C)c(C)c3CCC(=O)O)/C(CCC(=O)O)=C2C)NC1=O", "note": "[biliverdin, biliverdin dihydrochloride]", "values": [
      {"measurement": "grafts surviving for more than 100 days", "setting": "[1]; biliverdin two (every 12 hours) or three (every 8 hours) times per day, 50 μmol/kg per dose, 4 of 6", "result": 66.7, "unit": "%"},
      {"measurement": "acceptance of secondary heart graft from the donor strain", "setting": "[1]; [2]", "result": "more than 60 days"},
      {"measurement": "rejection of third party (FVB) graft", "setting": "[1]; [2]", "result": "≤ 11", "unit": "days"},
      {"measurement": "graft median survival time (MST)", "setting": "[1]; one dose per day i.p. (ZnPPIX 5 mg/kg; biliverdin 50 μmol/kg), untreated 11.5 days", "result": 20.5, "unit": "days"},
      {"measurement": "proliferation of recipient splenocytes", "setting": "recipient splenocytes; biliverdin 50 μmol/kg, one dose per day", "result": "significantly suppressed"},
      {"measurement": "proliferation of recipient splenocytes", "setting": "recipient splenocytes; biliverdin 50 μmol/kg, three doses per day", "result": "significantly suppressed"}
    ]},
    {"smiles": "C=CC1=C(C)c2cc3[n-]c(cc4nc(cc5[n-]c(cc1n2)c(C)c5CCC(=O)[O-])C(CCC(=O)[O-])=C4C)c(C)c3C=C.[Co+2].[H+].[H+]", "note": "[CoPP, Cobalt protoporphyrin]", "values": [
      {"measurement": "grafts surviving long-term, >100 days", "setting": "[1]; 5 mg/kg/day i.p., donor from day-2, recipient day-1 to day 13, 2 of 6", "result": 33.3, "unit": "%"},
      {"measurement": "MST of the other 4 rejected grafts", "setting": "[1]; CoPPIX 5 mg/kg/day i.p.", "result": 18, "unit": "days"},
      {"measurement": "allografts surviving over 100 days", "setting": "[1]; CoPPIX (donor 2 days, recipient day-8 to day 6) plus DSI (D-7), 7/7", "result": 100, "unit": "%"},
      {"measurement": "grafts surviving long-term for more than 100 days", "setting": "[1]; CoPPIX together with DSI (D0), 7 of 8", "result": 87.5, "unit": "%"},
      {"measurement": "proliferation of recipient splenocytes", "setting": "recipient splenocytes; harvested 5 days after cardiac transplantation, 72 hours culture with DBA/2 splenocytes, compared to controls", "result": "inhibited splenocyte proliferation in a significant manner"}
    ]}
  ]
}
